Reference: patent publication US20070009533A1 (priority 2005, published 2007)

Target: T1, MDR1 function in K562/R7 cells (Homo sapiens, UniProt P08183)
T1 construct: endogenous in cells; host or cells: K562/R7 cells
Type: cell-based
Experimental: The loaded and washed cells were cultured at 37° C. in 0.5 ml lacking or containing the indicated concentrations of drug for the indicated amount of time. Control cells were placed on ice immediately after loading and, as indicated by the symbol to the far right at MFI=1172, the cells had been loaded with dye.

T1 sequence (P08183 whole entry): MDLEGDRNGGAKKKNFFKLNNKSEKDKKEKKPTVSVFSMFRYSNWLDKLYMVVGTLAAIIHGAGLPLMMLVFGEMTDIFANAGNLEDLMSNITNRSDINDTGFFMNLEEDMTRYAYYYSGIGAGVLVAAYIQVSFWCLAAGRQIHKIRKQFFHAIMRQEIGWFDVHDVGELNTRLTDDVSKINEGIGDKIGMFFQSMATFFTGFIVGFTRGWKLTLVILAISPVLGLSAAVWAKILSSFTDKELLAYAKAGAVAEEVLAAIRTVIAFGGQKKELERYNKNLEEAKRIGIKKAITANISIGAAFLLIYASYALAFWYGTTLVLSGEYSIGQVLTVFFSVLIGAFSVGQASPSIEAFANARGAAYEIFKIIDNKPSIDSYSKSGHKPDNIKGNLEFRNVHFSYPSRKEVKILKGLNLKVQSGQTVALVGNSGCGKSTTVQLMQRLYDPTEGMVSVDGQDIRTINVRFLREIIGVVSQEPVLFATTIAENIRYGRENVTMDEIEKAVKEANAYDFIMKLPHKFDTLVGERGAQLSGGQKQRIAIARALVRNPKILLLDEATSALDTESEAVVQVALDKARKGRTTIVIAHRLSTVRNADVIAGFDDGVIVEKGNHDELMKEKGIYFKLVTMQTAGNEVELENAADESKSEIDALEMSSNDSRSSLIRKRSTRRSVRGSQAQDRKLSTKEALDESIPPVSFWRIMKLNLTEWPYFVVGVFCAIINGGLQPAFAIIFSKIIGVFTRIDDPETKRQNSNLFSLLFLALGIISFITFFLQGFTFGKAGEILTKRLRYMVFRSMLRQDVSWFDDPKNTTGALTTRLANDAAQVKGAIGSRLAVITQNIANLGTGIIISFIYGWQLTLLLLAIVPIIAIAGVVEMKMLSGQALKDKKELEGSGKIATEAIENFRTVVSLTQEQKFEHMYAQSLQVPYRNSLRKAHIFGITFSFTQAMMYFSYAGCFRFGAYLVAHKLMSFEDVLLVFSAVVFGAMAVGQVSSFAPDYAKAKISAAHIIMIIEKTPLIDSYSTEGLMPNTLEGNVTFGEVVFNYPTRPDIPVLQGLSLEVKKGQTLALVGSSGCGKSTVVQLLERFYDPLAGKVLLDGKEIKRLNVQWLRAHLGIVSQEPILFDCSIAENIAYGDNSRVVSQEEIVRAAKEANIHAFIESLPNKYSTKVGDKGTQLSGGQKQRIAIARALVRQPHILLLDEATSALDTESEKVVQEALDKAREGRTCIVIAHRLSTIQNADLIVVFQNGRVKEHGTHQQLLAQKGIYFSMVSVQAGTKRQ

## O[C@@H](COc1cccc2ncccc12)CN1CCN([C@@H]2c3ccccc3[C@@H]3[C@H](c4ccccc42)C3(F)F)CC1 [zosuquidar]
  effect on dye release during efflux incubation: inhibited dye release in a concentration-dependent manner
